Reference: EP0812190B1 (priority 1993, dated 1995)
Where a name gives a salt, the structure may show the parent alone. Read-outs that look alike come from different tables or passages of the source.

How the values were obtained:
[1] = tested on: haloperidol-induced catalepsy
Experimental: (+)PAI mesylate, or racemic-PAI mesylate. All drugs were administered i.p. in a volume of 0.2 mL. Two hours later, haloperidol was injected s.c. at a dose of 6mg/kg in a volume of 0.1-0.2 mL. Motor coordination tests were made at 3 hours after giving haloperidol, that is, 5 hours after administering the presumed protective drugs.
Motor coordination tests and rigidity were quantified according to three different parameters: (a) ability to walk the length of a horizontal rod, 80 cm-long; (b) ability co climb down, face down, a vertical rod, 80 cm-long; (c) duration of immobility in an unnatural sitting posture whereby the abdomen of the mouse is pressed against a "wall." Full performance as in haloperidol-untreated mice is given the score of 4 in each test, or a total of 12 in all tests. Poor performance is given a score from 1 to 3.

[2] = tested on: heart rate, blood pressure, cardiovascular effects of tyramine; settings: cited from earlier work
MAO-B [3] = target: T1, MAO-B (Rattus norvegicus, UniProt P19643); assay: in vivo; settings: rat
T1 sequence (P19643 1-520): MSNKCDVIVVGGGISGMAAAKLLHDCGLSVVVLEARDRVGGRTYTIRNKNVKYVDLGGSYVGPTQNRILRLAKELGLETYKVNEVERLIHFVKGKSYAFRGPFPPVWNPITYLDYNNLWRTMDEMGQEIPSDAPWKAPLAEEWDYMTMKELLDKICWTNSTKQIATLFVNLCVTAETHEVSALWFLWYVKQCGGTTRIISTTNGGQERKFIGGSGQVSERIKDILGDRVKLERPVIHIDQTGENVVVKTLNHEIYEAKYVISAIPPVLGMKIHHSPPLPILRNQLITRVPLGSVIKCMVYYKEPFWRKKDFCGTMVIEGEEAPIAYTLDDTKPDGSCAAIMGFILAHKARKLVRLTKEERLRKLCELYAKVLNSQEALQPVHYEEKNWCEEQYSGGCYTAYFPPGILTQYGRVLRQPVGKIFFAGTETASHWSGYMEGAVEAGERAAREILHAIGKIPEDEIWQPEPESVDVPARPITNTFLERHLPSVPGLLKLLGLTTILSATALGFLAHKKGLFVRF
Experimental: Groups of three rats were used for each dose level of inhibitor, and MAO activity determined in brain and liver using the general technique described above. The amount of protein in each incubation was determined using the Folin-Lowry method, and enzyme activity calculated as nmol of substrate metabolized per hour of incubation for each mg of protein. Activity of MAO in tissues from animals treated with inhibitors was expressed as a percentage of the enzyme activity in a group of control animals administered vehicle (water for oral administration, 0.9% saline for ip injection) and killed as above.

MAO-A = target: T2, MAO-A (Rattus norvegicus, UniProt P21396); assay: Inhibition of MAO activity in vivo, acute treatment, MAO-A; parameters: MAO activity determined in brain and liver using the general technique described above; from tissue; host or cells: brain and liver of treated rats; settings: dose producing 50% inhibition, rat
T2 sequence (P21396 1-526): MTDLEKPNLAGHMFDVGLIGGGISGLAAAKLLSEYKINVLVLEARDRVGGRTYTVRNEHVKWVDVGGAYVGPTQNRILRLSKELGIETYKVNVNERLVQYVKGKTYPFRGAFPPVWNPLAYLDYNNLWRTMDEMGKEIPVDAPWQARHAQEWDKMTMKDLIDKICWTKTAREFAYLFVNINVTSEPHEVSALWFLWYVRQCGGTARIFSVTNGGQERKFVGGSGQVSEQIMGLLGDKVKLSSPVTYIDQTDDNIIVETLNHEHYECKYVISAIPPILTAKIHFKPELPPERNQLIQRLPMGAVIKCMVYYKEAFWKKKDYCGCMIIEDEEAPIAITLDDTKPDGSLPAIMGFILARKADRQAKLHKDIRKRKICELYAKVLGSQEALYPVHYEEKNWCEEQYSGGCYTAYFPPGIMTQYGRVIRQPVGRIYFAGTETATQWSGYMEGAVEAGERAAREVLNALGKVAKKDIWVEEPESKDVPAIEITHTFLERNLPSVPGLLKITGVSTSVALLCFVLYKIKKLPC

MAO-B [4] = target: T1, MAO-B; assay: Rat brain MAO inhibition by propargylamines (Table IA), MAO-B; format: biochemical; parameters: in a rat brain preparation of MAO; from tissue; host or cells: rat brain preparation; settings: ratio MAO-A / MAO-B for one epimer
[5] = tested on: MPTP-induced striatal dopamine depletions; assay: Suppression of MPTP-induced dopaminergic toxicity (striatal DA and DOPAC); format: in vivo, mice; settings: striatum
Experimental: Brains were removed and corpora striata dissected on an ice-cold glass plate and frozen on dry ice. Striatal tissues were homogenized in 0.1 M perchloric acid, and deproteinized aliquots containing dihydroxybenzylamine as an internal standard were assayed for dopamine and its major metabolite 3,4-dihydroxy-phenylacetic acid (DOPAC) using HPLC with electrochemical detection.

rabbit jejunum = assay: Tyramine potentiation in rabbit jejunum preparation
[6] = tested on: NMDA-induced cell death of cerebellum cells; assay: cells; settings: Rattus norvegicus, 24 h
Experimental: Procedures: Cultures of mechanically dissociated neonatal rat cerebellum. […] The cerebella are then dissociated after 20-25 passages through a sterile 13 gauge, 10 cm long stainless steel needle attached to a 5 ml syringe with an inserted 45 µm pore size nylon sieve. The dissociated cells are centrifuged at 200g for 5 minutes, the supernatant discarded and the cells resuspended in enriched medium. The cell viability is determined by the trypan blue exclusion test. […] After 4 days in culture, the media are replaced with media containing the desired test compounds. Experiments are done in duplicate and repeated 2 or 3 times. […] Nerve cell survival is evaluated by phase contrast microscopy and trypan blue staining after 24 h.

guinea-pig ileum [7] = tested on: guinea-pig ileum
guinea-pig ileum [8] = assay: tissue or blood; settings: Cavia porcellus, read-out: Percent relaxation
[9] = tested on: amphetamine-induced stereotype behavior; settings: control senescent rats; 0.5 mg/kg/day in drinking water; lateral head movements over 1 minute, 45 min after amphetamine 0.5 mg/kg s.c.
Experimental: The extent of this behavior is rated in accordance with the number of lateral head movements over a period of 1 minute.
Following that, amphetamine was injected s.c. at a dose of 0.5 mg/kg. 45 minutes later, lateral head movements were counted.

guinea-pig ileum [10] = assay: tissue or blood; settings: Cavia porcellus, read-out: Percent relaxation; remark: listed apart in the source
[11] = tested on: α-MpT-induced hypokinesia; assay: Reversal of α-MpT-induced hypokinesia in rats; format: in vivo; settings: α-MpT 100 mg/kg i.p. alone
Experimental: The drug α-MpT is assumed to inhibit the formation of L-DOPA from tyrosine, and consequently the formation of dopamine itself. Lack of CNS dopamine is expressed as hypoactivity. Six month-old male Wistar rats (from Harlan Orkack, UK) were pretreated with saline, [R] […] Two hours later they received i.p. α-MpT at a dose of 100 mg/kg in 0.3-0.5 mL. Controls received saline. Following this, motor activity was recorded in a computerized activity cage for the duration of 10 hours. […] (+)PAI Mesylate at 2 mg/kg.

[12] = Comparative stability: visual inspection of color and form; format: physicochemical
Experimental: Comparative stability studies were carried out under sets of several accelerating conditions: I) heating at 80°C for 72, 96 or 144 hours; and II) reflux in isopropanol for 30 hours. The degradation products developed were measured by HPLC and confirmed by TLC. The results are presented in Table 9 with the relative retention time (relative to the PAI peak; RRT) as an area percentage relative to total integrated peak area.
The salts were submitted to visual inspection of color and form.

[13] = pH of 1% aqueous solution of PAI salts; format: physicochemical
Experimental: (§1) The melting range was measured with an automatic apparatus (Mettler FP 80) and thermo-gravimetric analysis was performed on a Mettler TA 3000 system at a rate of 10°C/min in the applicable range. […] The pH was measured in a 1% aqueous solution of the PAI salts.

[14] = Thermo-gravimetric analysis of PAI salts; format: physicochemical; settings: 10°C/min
Experimental: as §1

[15] = comparative animal tests versus (-)-deprenyl

Molecule: C#CCNC1CCc2ccccc21 (racemic) [Rac PAI Mesylate, reference compound]
- Score+SE ([1]; 5.0 mg/kg i.p., listed as Racemic PAI mesylate): not active

Molecule: C#CCNC1CCc2ccccc21 (racemic) [Rac, N-propargyl-1-aminoindan, reference compound]
- blood pressure [2, 15]: does not increase blood pressure
- tachycardia [2, 15]: no significant tachycardia
- IC-50 MAO-B P.O. BRAIN (MAO-B [3]; dose producing 50% inhibition, p.o., 2h): 0.29 mg/kg
- ED50 (MAO-B [3]; ip, 1 h, read-out: IC-50 MAO-B I.P. BRAIN): 0.22 mg/kg
- ED50 (MAO-B [3]; ip, 1 h, read-out: IC-50 MAO-B I.P. LIVER): 0.11 mg/kg
- ED50 (MAO-B [3]; po, 2 h, read-out: IC-50 MAO-B P.O. LIVER): 0.09 mg/kg
- IC-50 MAO-A I.P. BRAIN (MAO-A; i.p., 1h): 2.5 mg/kg
- IC-50 MAO-A I.P. LIVER (MAO-A; i.p., 1h): 5 mg/kg
- IC-50 MAO-A P.O. BRAIN (MAO-A; p.o., 2h): >5 mg/kg
- IC-50 MAO-A P.O. LIVER (MAO-A; p.o., 2h): >5 mg/kg

Molecule: C#CCNC1CCc2ccccc21 (racemic) [racemic PAI·HCl, Racemic N-propargyl-1-aminoindan hydrochloride]
- potentiation of the cardiovascular effects of tyramine ([2]; in vivo): does not potentiate the cardiovascular effects of tyramine

Molecule: C#CCN(C)C1CCCc2ccccc21 (single isomer, unassigned) [2-MPAI +, N-Methyl-N-propargyl-1-aminotetralin]
- RELATIVE POTENCY A/B (MAO-B [4]): 8.8

Molecule: C#CCN(C)C1CCCc2ccccc21 (single isomer, unassigned) [2-MPAI -, N-Methyl-N-propargyl-1-aminotetralin]
- RELATIVE POTENCY A/B (MAO-B [4]): 0.5

Molecule: C#CCNC1CCCc2ccccc21 (centres unmarked) [1-PAT R, N-propargyl-1-aminotetralin]
- RELATIVE POTENCY A/B (MAO-B [4]): 10

Molecule: C#CCNC1CCCc2ccccc21 (centres unmarked) [1-PAT S, N-propargyl-1-aminotetralin]
- RELATIVE POTENCY A/B (MAO-B [4]): 76

Molecule: O=C(CCCN1CCC(O)(c2ccc(Cl)cc2)CC1)c1ccc(F)cc1 [Haloperidol, reference compound]
- Score+SE ([1]; haloperidol 6mg/kg s.c. alone, 3 hours after): 6.6±0.3
- Score+SE ([1]; haloperidol 6mg/kg s.c. alone, 3 hours after, listed as haloperidol): 6.6±0.03

Molecule: CN1CC=C(c2ccccc2)CC1 [MPTP, 1-Methyl-phenyl-1,2,3,6-tetrahydropyridine]
- DA ([5]; MPTP-HCl 30 mg/kg s.c. alone): 53.1±6.2 ng/mg protein
- DOPAC ([5]; MPTP-HCl 30 mg/kg s.c. alone): 3.2±0.3 ng/mg protein

Molecule: NC[C@H](O)c1ccc(O)c(O)c1 [Norepiniphrine]
- Percent relaxation (rabbit jejunum; 0.002 µM): 100%

Molecule: NCCCNCCCCNCCCN [Spermine, reference compound]
- inhibition at 0.01 µM ([6]; read-out: Percent Protection): 65%
- viability at 0.01 µM ([6]; read-out: Surviving Cells): 75%

Molecule: NCCc1ccc(O)cc1 [Tyramine]
- Percent relaxation (rabbit jejunum; tyramine alone 40 µM): 0%

Molecule: C#CCN[C@H]1CCc2ccccc21 [[S](-)PAI, S-(-)-N-propargyl-1-aminoindan, reference compound]
- gram-tension (guinea-pig ileum [7]; bethanechol 0.8 µM, 400 µM PAI HCl enantiomer): 0 gram-tension
- gram-tension (guinea-pig ileum [7]; bethanechol 2 µM, 400 µM enantiomer): 0 gram-tension
- gram-tension (guinea-pig ileum [7]; bethanechol 4 µM, 400 µM enantiomer): 0 gram-tension
- gram-tension (guinea-pig ileum [7]; bethanechol 20 µM, 400 µM enantiomer): 1.2 gram-tension
- gram-tension (guinea-pig ileum [7]; bethanechol 80 µM, 400 µM enantiomer): 2.6 gram-tension
- gram-tension (guinea-pig ileum [7]; bethanechol 200 µM, 400 µM enantiomer): 2.6 gram-tension
- inhibition at 60 µM (guinea-pig ileum [8]): 60 to 70%
- inhibition at 300 µM (guinea-pig ileum [8]): 100%
- Percent relaxation (rabbit jejunum; PAI HCl enantiomer alone 0.2-4.0 µM): 0%
- Percent relaxation (rabbit jejunum; tyramine 40 µM after 0.2 µM PAI HCl enantiomer): 0%
- Percent relaxation (rabbit jejunum; tyramine 40 µM after 2 µM PAI HCl enantiomer): 35%
- Percent relaxation (rabbit jejunum; tyramine 40 µM after 40 µM PAI HCl enantiomer): 33-50%
- DOPAC ([5]; drug alone (PAI isomers […] i.p., deprenyl 5 mg/kg i.p.)): 7.5±0.2 ng/mg protein
- DA ([5]; drug alone (PAI isomers […] i.p., deprenyl 5 mg/kg i.p.), Mean±S.E.M.): 174.0±4.8 ng/mg protein
- DA ([5]; pretreatment one hour before MPTP-HCl 30 mg/kg s.c. (PAI isomers […] i.p., deprenyl 5 mg/kg i.p.), 5 days later): 53.4±6.9 ng/mg protein
- DOPAC ([5]; pretreatment one hour before MPTP-HCl 30 mg/kg s.c., 5 days later): 7.0±0.6 ng/mg protein
- Stereotype Behavior Rating [9]: totally inactive
- inhibition at 2 µM (guinea-pig ileum [10]): 11%
- inhibition at 30 µM (guinea-pig ileum [10]): 33%
- inhibition at 40 µM (guinea-pig ileum [10]): 36%
- inhibition at 200 µM (guinea-pig ileum [10]): 90%
- inhibition at 400 µM (guinea-pig ileum [10]): 98%
- inhibition at 1000 µM (guinea-pig ileum [10]): 100%

Molecule: CC(N)(Cc1ccc(O)cc1)C(=O)O (stereo not drawn) [α-Mpt, α-methyl-p-tyrosine, reference compound]
- % of control [11]: 51%
- Score (total motor activity, 10 hours) [11]: 8,108±810

Molecule: chloride
- appearance ([12]; 80°C/72h): white powder
- appearance ([12]; 80°C/144h): white powder
- appearance ([12]; reflux in iPrOH/30h): off white powder

Molecule: fumarate
- pH [13]: 3.5
- %Wt. loss [14]: 0.2%
- Solubility (water): 95 mg/mL

Molecule: maleate
- %Wt. loss [14]: 0.1%
- Solubility (water): NLT 1000 mg/ml
- appearance ([12]; 80°C/72h): brown melted
- appearance ([12]; 80°C/96h): brown
- appearance ([12]; reflux in iPrOH/30h): brown melted

Molecule: phosphate
- appearance ([12]; 80°C/72h): brownish powder
- appearance ([12]; 80°C/144h): brown powder
- appearance ([12]; reflux in iPrOH/30h): brown powder

Molecule: sulphate
- appearance ([12]; 80°C/72h): off white powder
- appearance ([12]; 80°C/144h): off white powder
- appearance ([12]; reflux in iPrOH/30h): brown powder

Molecule: tartarate
- pH [13]: 5.5
- %Wt. loss [14]: LT 0.1%

Molecule: tosylate
- pH [13]: 4.4
- %Wt. loss [14]: LT 0.1%
- Solubility (saturated salt water solution): 60 to 70 mg/mL
